Measurements reported in patent publication US4211772A, “Benzopyran glycoside acetals and ketals” (Laboratoires Sarget, priority 1977, dated 1980).
≈ marks a conversion by molar mass, not a printed value. Read-outs that look alike come from different tables or passages of the source.

Legend:
Solubilities in water = format: physicochemical; details: water; read-out: Solubilities in water
Aldose Reductase = molecular target: T1, Aldose Reductase (Bos taurus, UniProt P16116); assay: Inhibition of aldose reductase in vitro (enzyme from beef eye lenses, glyceraldehyde substrate); format: biochemical; details: in DMF solution, read-out: percentages of inhibition (aldose reductase); for inhibition at 100 µM: 10^-4 mole/l; for inhibition at 10 µM: 10^-5 mole/l
T1 construct: The enzyme is extracted from beef eye lenses; from tissue; host or cells: beef eye lenses
From the text: Inhibition of Aldose Reductase In Vitro
The reoxidation of NADPH coupled to the enzymatic reaction was followed spectrophotometrically at 340 nm.

carragenin edema = assay: Anti-inflammatory activity: carragenin edema test; format: in vivo; details: Rattus norvegicus, ip, substantially alkaline pH solution, read-out: % inhibition of carragenin edema; for inhibition in vivo at 200 mg/kg: 200 mg/kg i.p.; for inhibition in vivo at 100 mg/kg: 100 mg/kg i.p.; for inhibition in vivo at 300 mg/kg: 300 mg/kg i.p.; for inhibition in vivo at 150 mg/kg: 150 mg/kg i.p.
Experimental: Anti-inflammatory activity
This was determined by the carragenin edema test using male Wistar EOPS rats. Inflammation was induced by the injection of 0.1 ml of a suspension of 5% carragenin in physiological serum into the muscular bundle of the metatarsal region of the posterior paw of the animal. The test substance was administered i.p. in neutralized solution at the same time as the carragenin.
Edema was measured by plethysmometry at different times after the administration of the carragenin.
Tables IV and V show the percentages of inhibition as a function of time and of dosage for certain compounds of the present invention.
The above results were obtained for solutions of substantially alkaline
The reference experiments were performed using physiological serum brough
to a pH approximately the same as the pH of the solutions to be tested.

capillary resistance = assay: Capillaroprotecting effects: capillary resistance; format: in vivo, male OFA EOPS rats
Experimental: (§1) Capillaroprotecting effects
The capillary resistance was determined by a variant of the method of Charlier et al, Arch. Inter. Physiol.

[1] = i.p. toxicity in Swiss EOPS mice, mortality at 14 days; details: mouse, in vivo, ip, DMSO solution at 1/2, read-out: percentages of mortality at the end of 14 days
Experimental: The i.p. toxicities of certain compounds of the present invention were determined using male and female Swiss EOPS mice for administrations in DMSO solution at 1/2 under a volume of P/100.

capillary permeability = assay: Capillaroprotecting effects: capillary permeability; format: in vivo, conventional male Wistar rats
Experimental: as §1
The capillary permeability was determined by the method of Charlier et al, Arch. Inter. Physiol.

Row | Compound | inhibition at 100 µM (Aldose Reductase) [%] | inhibition at 10 µM (Aldose Reductase) [%] | inhibition in vivo at 200 mg/kg (carragenin edema; 1/2 h) [%] | inhibition in vivo at 200 mg/kg (carragenin edema; 1 h, 1 h 1/2) [%] | inhibition in vivo at 200 mg/kg (carragenin edema; 1 h, 1 h) [%] | inhibition in vivo at 200 mg/kg (carragenin edema; 2 h, 2 h) [%] | inhibition in vivo at 200 mg/kg (carragenin edema; 3 h, 3 h) [%] | inhibition in vivo at 200 mg/kg (carragenin edema; 4 h, 4 h) [%] | inhibition in vivo at 200 mg/kg (carragenin edema; 5 h, 5 h) [%] | inhibition in vivo at 200 mg/kg (carragenin edema; 6 h, 6 h) [%] | mortality at 336 h ([1]; 500 mg/kg i.p.) [%] | mortality at 336 h ([1]; 1000 mg/kg i.p.) [%] | mortality at 336 h ([1]; 2000 mg/kg i.p.) [%] | inhibition in vivo at 300 mg/kg (carragenin edema; 1/2 h) [%] | inhibition in vivo at 300 mg/kg (carragenin edema; 1 h, 1 h 1/2) [%] | inhibition in vivo at 300 mg/kg (carragenin edema; 1 h, 1 h) [%] | inhibition in vivo at 300 mg/kg (carragenin edema; 2 h, 2 h) [%] | inhibition in vivo at 300 mg/kg (carragenin edema; 3 h, 3 h) [%] | inhibition in vivo at 300 mg/kg (carragenin edema; 4 h, 4 h) [%] | inhibition in vivo at 300 mg/kg (carragenin edema; 5 h, 5 h) [%] | other results
1 | CC1(C)OC[C@H]2O[C@@H](Oc3cc4ccc(=O)oc4cc3O)[C@H](O)[C@@H](O)[C@@H]2O1 [No. 15, 6-O-(4,6-O,O-isopropylidene-β-D-glucosyl) esculetol] | 60 | 9 | 18 | 20 | 26 | 13 | 1 | 7 | 10 | 17 | 10 | 0 | 70 | – | – | – | – | – | – | – | solubility (Solubilities in water): 9200 µg/mL (≈ 24.2 mM); capillary resistance, effect observed (capillary resistance; 25 mg/kg i.p.): 17 ± 11.8 u cm Hg/h; capillary resistance, effect observed (capillary resistance; 50 mg/kg i.p.): 20 ± 12.9 u cm Hg/h; mortality at 336 h ([1]; 1500 mg/kg i.p.): 20%
2 | C[C@@H]1O[C@@H](O[C@H]2[C@H](Oc3cc(O)c4c(c3)OC(c3ccc(O)cc3)CC4=O)O[C@H](CO)[C@@H](O)[C@@H]2O)[C@@H]2OC(C)(C)O[C@@H]2[C@H]1O (stereo partly drawn) [No. 8, 7-O-(2,3-O,O-isopropylidene-2-α-L-rhamnosyl-β-D-glucosyl)-naringenin] | 25 | 0 | 9 | 70 | 42 | 60 | 28 | 27 | 22 | 24 | 0 | 0 | 0 | 62 | 74 | 78 | 73 | 50 | 50 | 33 | inhibition in vivo at 100 mg/kg (carragenin edema; 1/2 h): 23%; inhibition in vivo at 100 mg/kg (carragenin edema; 1 h, 1 h 1/2): 85%; inhibition in vivo at 100 mg/kg (carragenin edema; 1 h, 1 h): 64%; inhibition in vivo at 100 mg/kg (carragenin edema; 2 h, 2 h): 75%; inhibition in vivo at 100 mg/kg (carragenin edema; 3 h, 3 h): 48%; inhibition in vivo at 100 mg/kg (carragenin edema; 4 h, 4 h): 48%; inhibition in vivo at 100 mg/kg (carragenin edema; 5 h, 5 h): 35%; inhibition in vivo at 100 mg/kg (carragenin edema; 6 h, 6 h): 37%; inhibition in vivo at 300 mg/kg (carragenin edema; 6 h, 6 h): 35%
3 | COc1ccc(-c2cc(=O)c3c(O)cc(O[C@@H]4O[C@H](CO[C@@H]5O[C@@H](C)[C@H](O)[C@H]6OC(C)(C)O[C@@H]56)[C@@H](O)[C@H](O)[C@H]4O)cc3o2)cc1O [No. 32, 7-O-(2,3-O,O-isopropylidene-6-α-L-rhamnosyl-β-D-glucosyl)diosmitin] | – | – | 8 | 35 | 16 | 43 | 36 | 30 | 20 | 20 | – | 0 | – | 0 | 38 | 8 | 44 | 31 | 32 | 43 | inhibition in vivo at 150 mg/kg (carragenin edema; 1/2 h): 5%; inhibition in vivo at 150 mg/kg (carragenin edema; 1 h, 1 h 1/2): 37%; inhibition in vivo at 150 mg/kg (carragenin edema; 1 h, 1 h): 17%; inhibition in vivo at 150 mg/kg (carragenin edema; 2 h, 2 h): 49%; inhibition in vivo at 150 mg/kg (carragenin edema; 3 h, 3 h): 43%; inhibition in vivo at 150 mg/kg (carragenin edema; 4 h, 4 h): 42%; inhibition in vivo at 150 mg/kg (carragenin edema; 5 h, 5 h): 37%; inhibition in vivo at 150 mg/kg (carragenin edema; 6 h, 6 h): 34%; inhibition in vivo at 300 mg/kg (carragenin edema; 6 h, 6 h): 36%; percentage reduction of capillary permeability (capillary permeability; 10 mg/kg i.p.): 7%; percentage reduction of capillary permeability (capillary permeability; 75 mg/kg i.p.): 32%
